{"source": "patent US20100298141A1", "about": "“SUBSTITUTED PYRIDINE N-OXIDE HERBICIDES” (E. I. DU PONT DE NEMOURS AND COMPANY, priority 2007, published 2010)", "test_in_all_cases": "Test F preemergence test", "conditions_in_all_cases": "scale 0 to 100", "key": {"bermudagrass": {"system": "bermudagrass", "type": "in vivo, Cynodon dactylon", "summary_of_the_method": "(§1)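 Test chemicals were formulated in a non-phytotoxic solvent mixture with surfactant and applied preemergence to planted seeds or postemergence to sugarcane plants. Plants were kept in a greenhouse for 14 to 21 days, then visually evaluated against controls.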"}, "Surinam grass": {"system": "Surinam grass", "type": "in vivo, Brachiaria decumbens", "summary_of_the_method": "as §1"}, "goosegrass": {"system": "goosegrass", "type": "in vivo, Eleusine indica", "summary_of_the_method": "as §1"}, "johnsongrass": {"system": "johnsongrass", "type": "in vivo, Sorghum halepense", "summary_of_the_method": "as §1"}, "pitted morningglory": {"system": "pitted morningglory", "type": "in vivo, Ipomoea lacunosa", "source_text": "Seeds of plant species selected from bermudagrass (Cynodon dactylon), Surinam grass (Brachiaria decumbens), large crabgrass (Digitaria sanguinalis), green foxtail (Setaria viridis), goosegrass (Eleusine indica), johnsongrass (Sorghum halepense), kochia (Kochia scoparia), pitted morningglory (Ipomoea lacunosa), purple nutsedge (Cyperus rotundus), common ragweed (Ambrosia elation), mustard (Brassica nigra), guineagrass (Panicum maximum), […] (Paspalum dilatatum), barnyardgrass (Echinochloa crus-galli), southern sandbur (Cenchrus echinatus), common sowthistle (Sonchus oleraceous), prickly […] spinosa), Italian ryegrass (Lolium multiflorum), common purslane (Portulaca oleracea), broadleaf signalgrass (Brachiaria platyphylla), common groundsel (Senecio vulgaris), common chickweed (Stellaria media), Virginia dayflower (Commelina virginica), annual bluegrass (Poa annua), naked crabgrass (Digitaria nuda), […] cochinchinensis), quackgrass (Elytrigia repens), Canada horseweed (Conyza canadensis), field bindweed (Convolvulus arvensis), […] (Bidens bipinnata), common mallow (Malva sylvestris), Russian thistle (Salsola kali), and sugarcane (Saccharum officinarum) were planted and treated preemergence with test chemicals formulated in a non-phytotoxic solvent mixture which included a surfactant. At a different time, sugarcane was treated with postemergence applications of some of the test chemicals formulated in the same manner. Plants were approximately 3- to 4-leaf stage for the postemergence treatments. Treated plants and controls were maintained in a greenhouse for 14 to 21 days, after which time all species were compared to controls and visually evaluated. […] A dash (-) response means no test result."}, "purple nutsedge": {"system": "purple nutsedge", "type": "in vivo, Cyperus rotundus", "summary_of_the_method": "as §1"}, "common ragweed": {"system": "common ragweed", "type": "in vivo, Ambrosia elation", "summary_of_the_method": "as §1"}, "guineagrass": {"system": "guineagrass", "type": "in vivo, Panicum maximum", "summary_of_the_method": "as §1"}, "southern sandbur": {"system": "southern sandbur", "type": "in vivo, Cenchrus echinatus", "summary_of_the_method": "as §1"}, "prickly sida": {"system": "prickly sida", "type": "in vivo, Sida spinosa", "summary_of_the_method": "as §1"}, "Italian ryegrass": {"system": "Italian ryegrass", "type": "in vivo, Lolium multiflorum", "summary_of_the_method": "as §1"}, "common purslane": {"system": "common purslane", "type": "in vivo, Portulaca oleracea", "summary_of_the_method": "as §1"}, "broadleaf signalgrass": {"system": "broadleaf signalgrass", "type": "in vivo, Brachiaria platyphylla", "summary_of_the_method": "as §1"}, "naked crabgrass": {"system": "naked crabgrass", "type": "in vivo, Digitaria nuda", "summary_of_the_method": "as §1"}, "itchgrass": {"system": "itchgrass", "type": "in vivo, Rottboellia cochinchinensis", "summary_of_the_method": "as §1"}, "field bindweed": {"system": "field bindweed", "type": "in vivo, Convolvulus arvensis", "summary_of_the_method": "as §1"}}, "data": [{"compound": "CC(c1c(C(F)(F)F)nn(C)c1OCC(F)(F)F)S(=O)(=O)c1cccc[n+]1[O-]", "note": "(racemic) [Compound 33]", "values": [{"measurement": "Plant response rating, Bermudagrass", "setting": "bermudagrass; 16 g ai/ha, preemergence", "result": 40}, {"measurement": "Bermudagrass plant response rating", "setting": "bermudagrass; 62 g ai/ha, Preemergence", "result": 70}, {"measurement": "Bermudagrass plant response rating", "setting": "bermudagrass; 125 g ai/ha, preemergence", "result": 100}, {"measurement": "Plant response rating, Bermudagrass", "setting": "bermudagrass; Preemergence, 31 g ai/ha", "result": 60}, {"measurement": "Plant response rating, Surinam Grass", "setting": "Surinam grass; 16 g ai/ha, preemergence", "result": 20}, {"measurement": "Surinam Grass plant response rating", "setting": "Surinam grass; 125 g ai/ha, preemergence", "result": 100}, {"measurement": "Plant response rating, Surinam Grass", "setting": "Surinam grass; Preemergence, 31 g ai/ha", "result": 100}, {"measurement": "Plant response rating, Goosegrass", "setting": "goosegrass; 16 g ai/ha, preemergence", "result": 60}, {"measurement": "Goosegrass plant response rating", "setting": "goosegrass; 62 g ai/ha, Preemergence", "result": 98}, {"measurement": "Goosegrass plant response rating", "setting": "goosegrass; 125 g ai/ha, preemergence", "result": 100}, {"measurement": "Plant response rating, Goosegrass", "setting": "goosegrass; Preemergence, 31 g ai/ha", "result": 95}, {"measurement": "Plant response rating, Johnsongrass", "setting": "johnsongrass; 16 g ai/ha, preemergence", "result": 30}, {"measurement": "Johnsongrass plant response rating", "setting": "johnsongrass; 62 g ai/ha, Preemergence", "result": 100}, {"measurement": "Johnsongrass plant response rating", "setting": "johnsongrass; 125 g ai/ha, preemergence", "result": 100}, {"measurement": "Plant response rating, Johnsongrass", "setting": "johnsongrass; Preemergence, 31 g ai/ha", "result": 60}, {"measurement": "Plant response rating, Morningglory", "setting": "pitted morningglory; 16 g ai/ha, preemergence", "result": 0}, {"measurement": "Morningglory plant response rating", "setting": "pitted morningglory; 62 g ai/ha, Preemergence", "result": 98}, {"measurement": "Morningglory plant response rating", "setting": "pitted morningglory; 125 g ai/ha, preemergence", "result": 100}, {"measurement": "Plant response rating, Morningglory", "setting": "pitted morningglory; Preemergence, 31 g ai/ha", "result": 15}, {"measurement": "Plant response rating, Purple Nutsedge", "setting": "purple nutsedge; 16 g ai/ha, preemergence", "result": 0}, {"measurement": "Purple Nutsedge plant response rating", "setting": "purple nutsedge; 62 g ai/ha, Preemergence", "result": 85}, {"measurement": "Purple Nutsedge plant response rating", "setting": "purple nutsedge; 125 g ai/ha, preemergence", "result": 85}, {"measurement": "Plant response rating, Purple Nutsedge", "setting": "purple nutsedge; Preemergence, 31 g ai/ha", "result": 35}, {"measurement": "Plant response rating, Ragweed", "setting": "common ragweed; 16 g ai/ha, preemergence", "result": 20}, {"measurement": "Ragweed plant response rating", "setting": "common ragweed; 125 g ai/ha, preemergence", "result": 75}, {"measurement": "Plant response rating, Ragweed", "setting": "common ragweed; Preemergence, 62 g ai/ha", "result": 60}, {"measurement": "Plant response rating, Ragweed", "setting": "common ragweed; Preemergence, 31 g ai/ha", "result": 40}, {"measurement": "Plant response rating, Guineagrass", "setting": "guineagrass; 16 g ai/ha, preemergence", "result": 70}, {"measurement": "Guineagrass plant response rating", "setting": "guineagrass; 62 g ai/ha, Preemergence", "result": 100}, {"measurement": "Guineagrass plant response rating", "setting": "guineagrass; 125 g ai/ha, preemergence", "result": 100}, {"measurement": "Plant response rating, Guineagrass", "setting": "guineagrass; Preemergence, 31 g ai/ha", "result": 100}, {"measurement": "Plant response rating, Sandbur", "setting": "southern sandbur; 16 g ai/ha, preemergence", "result": 100}, {"measurement": "Sandbur plant response rating", "setting": "southern sandbur; 125 g ai/ha, preemergence", "result": 100}, {"measurement": "Plant response rating, Sandbur", "setting": "southern sandbur; Preemergence, 62 g ai/ha", "result": 100}, {"measurement": "Plant response rating, Sandbur", "setting": "southern sandbur; Preemergence, 31 g ai/ha", "result": 100}, {"measurement": "Plant response rating, Prickly Sida", "setting": "prickly sida; 16 g ai/ha, preemergence", "result": 25}, {"measurement": "Prickly Sida plant response rating", "setting": "prickly sida; 62 g ai/ha, Preemergence", "result": 90}, {"measurement": "Prickly Sida plant response rating", "setting": "prickly sida; 125 g ai/ha, preemergence", "result": 100}, {"measurement": "Plant response rating, Prickly Sida", "setting": "prickly sida; Preemergence, 31 g ai/ha", "result": 90}, {"measurement": "Plant response rating, Ryegrass, Italian", "setting": "Italian ryegrass; 16 g ai/ha, preemergence", "result": 60}, {"measurement": "Ryegrass, Italian plant response rating", "setting": "Italian ryegrass; 125 g ai/ha, preemergence", "result": 100}, {"measurement": "Plant response rating, Ryegrass, Italian", "setting": "Italian ryegrass; Preemergence, 62 g ai/ha", "result": 100}, {"measurement": "Plant response rating, Ryegrass, Italian", "setting": "Italian ryegrass; Preemergence, 31 g ai/ha", "result": 100}, {"measurement": "Plant response rating, Purslane", "setting": "common purslane; 16 g ai/ha, preemergence", "result": 0}, {"measurement": "Purslane plant response rating", "setting": "common purslane; 62 g ai/ha, Preemergence", "result": 65}, {"measurement": "Purslane plant response rating", "setting": "common purslane; 125 g ai/ha, preemergence", "result": 100}, {"measurement": "Plant response rating, Purslane", "setting": "common purslane; Preemergence, 31 g ai/ha", "result": 20}, {"measurement": "Plant response rating, Signalgrass", "setting": "broadleaf signalgrass; 16 g ai/ha, preemergence", "result": 15}, {"measurement": "Signalgrass plant response rating", "setting": "broadleaf signalgrass; 125 g ai/ha, preemergence", "result": 80}, {"measurement": "Plant response rating, Signalgrass", "setting": "broadleaf signalgrass; Preemergence, 62 g ai/ha", "result": 75}, {"measurement": "Plant response rating, Signalgrass", "setting": "broadleaf signalgrass; Preemergence, 31 g ai/ha", "result": 35}, {"measurement": "Plant response rating, Crabgrass, Naked", "setting": "naked crabgrass; 16 g ai/ha, preemergence", "result": 75}, {"measurement": "Crabgrass, Naked plant response rating", "setting": "naked crabgrass; 62 g ai/ha, Preemergence", "result": 100}, {"measurement": "Crabgrass, Naked plant response rating", "setting": "naked crabgrass; 125 g ai/ha, preemergence", "result": 100}, {"measurement": "Plant response rating, Itchgrass", "setting": "itchgrass; 16 g ai/ha, preemergence", "result": 25}, {"measurement": "Itchgrass plant response rating", "setting": "itchgrass; 62 g ai/ha, Preemergence", "result": 80}, {"measurement": "Itchgrass plant response rating", "setting": "itchgrass; 125 g ai/ha, preemergence", "result": 100}, {"measurement": "Plant response rating, Itchgrass", "setting": "itchgrass; Preemergence, 31 g ai/ha", "result": 40}, {"measurement": "Plant response rating, Field Bindweed", "setting": "field bindweed; 16 g ai/ha, preemergence", "result": 0}, {"measurement": "Field Bindweed plant response rating", "setting": "field bindweed; 62 g ai/ha, Preemergence", "result": 50}, {"measurement": "Field Bindweed plant response rating", "setting": "field bindweed; 125 g ai/ha, preemergence", "result": 60}, {"measurement": "Plant response rating, Field Bindweed", "setting": "field bindweed; Preemergence, 31 g ai/ha", "result": 0}]}]}
